Assay results as given in patent publication US20190070165A1, “N-HYDROXYISOQUINOLINEDIONE INHIBITORS OF HBV REPLICATION” (Saint Louis University, priority 2016, published 2019).
Where two headings read alike, the source gives them in different places.

What was measured:
HBV infections = conditions: cited from earlier work
human RNaseH1 = biological target: T1, human RNaseH1 (Homo sapiens, UniProt O60930); assay: Oligonucleotide-directed RNA cleavage assay, human RNaseH1; type: biochemical; conditions: compounds at 100, 60 and 20 μM
T1 construct: made in house; host or cells: E. coli
T1 sequence (O60930 1-286): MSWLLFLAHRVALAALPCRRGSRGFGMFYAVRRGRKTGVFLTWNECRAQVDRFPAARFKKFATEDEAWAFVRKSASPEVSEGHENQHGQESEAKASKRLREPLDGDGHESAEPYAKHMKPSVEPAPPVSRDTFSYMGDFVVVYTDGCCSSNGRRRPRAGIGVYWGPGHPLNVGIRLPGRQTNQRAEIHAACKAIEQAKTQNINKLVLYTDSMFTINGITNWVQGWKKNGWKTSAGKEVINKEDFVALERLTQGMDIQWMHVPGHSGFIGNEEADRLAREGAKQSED
Text: RNaseH expression and purification.
Oligonucleotide-directed RNA cleavage assay.

HBV replication = HBV replication inhibition assay in HepDES19 cells (strand-preferential q-PCR); type: cell-based, Hepatitis B virus; conditions: Hepatitis B virus
[1] = MTS cytotoxicity assay (CellTiter 96); conditions: human
Procedure: HepDES19 cells were seeded at 1×10^4 cells per well in a 96 well plate in the absence of tetracycline. The test compounds were applied in triplicate to the cells 48 hours later and the cells were incubated for 72 hours. Cell viability was measured using the CellTiter 96 Aqueous Non-Radioactive Cell Proliferation Assay (Promega). [3-(4,5-dimethylthiazol-2-yl)-5-(3-carboxymethoxyphenyl)-2-(4-sulfophenyl)-2H-tetrazolium, inner salt] (MTS) and phenazine methosulfate (PMS) solution at 2 mg/mL MTS and 0.043 mg/mL PMS were added to the medium, the cells were incubated for two hours at 37° C., and absorbance was measured at 490 nm. […] Neutral red was added to the media at a final concentration of 40 μg/mL. Cells were washed with PBS and incubated with neutral red medium for two hours at 37° C. The neutral red medium was removed and the cells were washed with PBS. […] Lactate dehydrogenase (LDH) release was measured using the LDH-cytotoxicity colorimetric assay kit (BioVision). Cells were lysed with 1% Triton-X to provide the high control and DMSO vehicle treatment was the low control. Supernatants were collected and transferred to a fresh 96 well plate, and LDH reaction mixture containing the catalyst and dye solution was added. The reaction was incubated for 15-20 minutes at room temperature in a dark box and absorbance was measured at 490 nm. Percent cytotoxicity was calculated as [(test sample−low control)/([…])]×100.

[2] = Neutral red (NR) cytotoxicity assay; type: cell-based; conditions: human, HepDES19 cells, read-out: Toxicity in HepDES19, NR (CC50)
Procedure: (§1) To further evaluate potential cytotoxicity of these hits, the effect of the compounds was determined for the uptake of neutral red (NR) by the lysosomes and lactate dehydrogenase (LDH) release into the supernatant due to cell membrane permeability. […] Overall, the TI values in Table 3 and FIG. 4 indicate that cytotoxicity was not the cause of antiviral efficacy, although it may have contributed to the apparent efficacy for #84, 85, 90, and 91, which all have TI values below 5.

[3] = Lactate dehydrogenase (LDH) release cytotoxicity assay; type: cell-based; conditions: human, HepDES19 cells, read-out: Toxicity in HepDES19, LDH (CC50)
Procedure: as §1

HSV-1 = HSV-1 replication inhibition assay in Vero cells; type: cell-based, herpes simplex virus 1; conditions: Human alphaherpesvirus 1, 24 h; 5 μM, Vero cells; read-out: HSV-1 suppression (log10 at 5 μM), class symbol
[4] = Stability in mouse liver microsomes; type: in vitro ADME
HBV RNaseH [5] = biological target: T2, HBV RNaseH (Hepatitis B virus genotype D subtype ayw, UniProt P03156)
HBV RNaseH [6] = biological target: T2, HBV RNaseH; assay: Molecular beacon RNaseH assay
Procedure: In this assay, a hairpin DNA oligonucleotide labeled with fluorescein on one end and a quencher on the other is held in a linear conformation by annealing to a complementary RNA; cleavage of the RNA causes the DNA to fold into a hairpin, suppressing fluorescence (FIG. 8A).
The substrate is a hairpin DNA oligonucleotide with a 5′ fluorescein reporter and a 3′ black hole quencher annealed to a complementary RNA oligonucleotide. The reaction was initiated by adding 5 mM Mg^++, and fluorescence was monitored at 37° C. with a Synergy 4 96-well plate reader. Inhibition was qualitatively determined as a dose-dependent reduction in the rate of substrate degradation.

T2 sequence (P03156 671-832): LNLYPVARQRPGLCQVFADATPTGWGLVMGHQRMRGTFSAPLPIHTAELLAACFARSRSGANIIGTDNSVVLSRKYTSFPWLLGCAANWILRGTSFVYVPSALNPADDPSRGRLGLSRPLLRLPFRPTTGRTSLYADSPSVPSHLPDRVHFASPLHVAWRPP

| Compound | patients with sustained clinical improvement (HBV infections) | inhibition of huRNaseH1 (human RNaseH1) | EC50 (HBV replication; HepDES19, read-out: EC50, HBV replication) [µM] | EC50 (HBV replication; HepDES19, read-out: HBV replication inhibition (EC50, μm)) [µM] | CC50 at 72 h [1] [µM] | CC50 at 72 h [2] [µM] | CC50 at 72 h [3] [µM] | log reduction at 5 µM (HSV-1) | stability in mouse liver microsomes [4] | Inhibition of HBV RNaseH, Oligonucleotide directed cleavage assay (HBV RNaseH [5]; Table 3, compounds at 100, 60 and 20 μM, compounds 1-91 and 138-140 previously reported (Cai et al., 2014)) | inhibition of RNA cleavage by HBV RNaseH (HBV RNaseH [5]; compounds at 100, 60 and 20 μM) | inhibition in the molecular beacon assay (HBV RNaseH [6]; 2.1 μg purified HBV RNaseH) | Inhibition of HBV RNaseH, Molecular Beacon cleavage assay (HBV RNaseH [6]; Table 3, 0 to 500 μM) |
| --- | --- | --- | --- | --- | --- | --- | --- | --- | --- | --- | --- | --- | --- |
| Interferon α | 20-30% | – | – | – | – | – | – | – | – | – | – | – | – |
| C/C(=N\c1ccccc1NO)c1c(C)cc(=O)n(O)c1O [Compound 208] | – | did not inhibit the huRNaseH1 at 100 μM | 0.69 | 0.69 ± 0.2 | 15 ± 7 | 13 ± 1 | 12 ± 0.1 | < 1 | stable | + (Dose-dependent inhibition at ≤100 μM) | inhibited RNA cleavage by the HBV RNaseH | inhibited | + (Dose-dependent inhibition at ≤500 μM) |
